Reference: patent US20100041597A1, “PEPTIDES TARGETED TO PROTEIN KINASE C ISOFORMS AND USES THEREOF” (priority 2005, published 2010)
Where no end group is shown, it is not given here.

Key:
[1] = tested on: LS180 colon cancer tumours; test: LS180 colon cancer tumours in mice, combination with doxorubicin; format: in vivo; details: mice treated with only doxorubicin (and control cohorts)
Excerpt: Both in vitro and in vivo data support the efficacy of PhGα1 in limiting the effect of multi-drug resistance (MDR) in colorectal drug-resistant tumours when used in combination treatment with chemotherapy. Specifically, studies have shown that establishment of LS180 colon cancer tumours in mice (M1 stage) treated with PhGα1 in combination with an anthracycline chemotherapeutic, doxorubicin, was delayed approximately 100% (p<0.03) versus control cohorts and mice treated with only doxorubicin (28 days compared to 14 days). Results were also observed for tumour transition from the M1 to M2 stage.

PKC-β [2] = test: In vitro competition with anti-PKC-β antibody, Protocol A, IMR-32 cells; format: binding, human; details: for Band Intensity / Inhibition (%) / Relative Intensity (%): PKC-β, IMR-32, Table 6
Description: (§1) Cell lysates from either IMR-32 (human neuroblastoma) cells or C6Cx43 cells (rat glioma transfected cells overexpressing connexin 43) were obtained using standard protocols and the proteins of the lysate were separated by SDS PAGE electrophoresis and electrotransferred onto a nitrocellulose membrane. The membrane was incubated for 30 minutes in blocking buffer (TBST) containing the test peptide at either 5× or 20× the concentrations of the primary antibody. A primary polyclonal antibody specific for PKC-α (Santa Cruz Biotechnology, Inc., CA) was then added (15 μg/ml) and the membrane incubated for a further 45 minutes. Finally, the primary antibody was detected with a secondary antibody conjugated to alkaline phosphatase using standard procedures. The intensity of the band corresponding to PKC-α was assessed by scanning and densitometry using the Gel-Pro software (Media Cybernetics) to obtain relative band intensities (average of 3 replicas). Control assays were conducted as described above except that blocking buffer without peptide was used.
Peptides PRE 1, PRE 2 and PRE 3 (see Table 3) were tested for their ability to interfere with the binding of a PKC-β-specific polyclonal antibody (Santa Cruz Biotechnology, Inc.) to PKC-β using the general protocol described in Example 1. […] It is worth noting in this regard that PKC-α and PKC-β belong to the same sub-group of PKCs (cPKCs).

PKC-β [3] = test: In vitro competition with anti-PKC-β antibody, Protocol B, IMR-32 cells; format: binding, human
Description: (§2) The ability of the peptides PRE 2 and PRE 3 (see Table 3) to interfere with the binding of a PKC-α-specific polyclonal antibody (Santa Cruz Biotechnology, Inc.) to PKC-α was determined using a modified version of the protocol outlined above in which the test peptide was added directly to the cell extract prior to electrophoresis at a concentration of either 5× or 15× the concentration of the protein applied to each well of the gel for the Western blots (20 μg).
Peptides PRE 2 and PRE 3 (see Table 3) were tested for their ability to interfere with the binding of a PKC-β-specific polyclonal antibody (Santa Cruz Biotechnology, Inc.) to PKC-β using the general protocol described in Example 3.

PKC-ε = test: In vitro competition with anti-PKC-ε antibody, Protocol B, IMR-32 cells; format: binding, human
Description: as §2
Peptides PRE 2, PRE 3 and PRE 4 (see Table 3) were tested for their ability to interfere with the binding of isoform-specific polyclonal antibodies (Santa Cruz Biotechnology, Inc.) to PKC-ε using the general protocol described in Example 3. Two bands, representing alternate splicing variants of PKC-ε, were identified on the Western blot using this anti-PKC-ε antibody.

PKC-α [4] = target: T1, PKC-α (Homo sapiens, UniProt P17252); test: In vitro competition with anti-PKC-α antibody on blotted cell lysate, Protocol A, IMR-32 cells; format: binding; set-up: subcellular localisation of endogenous PKC-α in IMR-32 cells; endogenous in cells; host or cells: IMR-32; details: Protocol A; for Band Intensity / Inhibition (%) / Relative Intensity (%): IMR-32, Table 4
Description: The ability of the peptides to interfere with the binding of a PKC-α-specific monoclonal antibody to PKC-α was determined using the following protocol.
as §1, with “The membrane was incubated for 30 minutes in blocking buffer (TBST) containing the test peptide at either 5× or 20× the concentrations of the primary antibody.” left out
The results are expressed as relative band intensity and as a percentage of the intensity of the corresponding band in the control assay (“Relative intensity (%)”). “% inhibition” relates to the percentage of the PKC-α band that is inaccessible to the antibody.

PKC-α [5] = target: T1, PKC-α; test: In vitro competition with anti-PKC-α antibody, Protocol B (peptide added to cell extract before electrophoresis), IMR-32 cells; format: binding; set-up: subcellular localisation of endogenous PKC-α in IMR-32 cells; endogenous in cells; host or cells: IMR-32
Description: Peptides PRE 3 and PRE 4 (see Table 3) were tested for their ability to interfere with the binding of isoform-specific polyclonal antibodies (Santa Cruz Biotechnology, Inc.) to PKC-α, PKC-βI or PKC-βII using the general protocol described in Example 3.

COc1cccc2c1C(=O)c1c(O)c3c(c(O)c1C2=O)C[C@@](O)(C(=O)CO)C[C@@H]3O[C@H]1C[C@H](N)[C@H](O)[C@H](C)O1 [doxorubicin]
time to establishment of LS180 tumours (M1 stage) [1]: 14 days

KDAQNLIGISL-NH2 [PRE 2]
effect on antibody binding to PKC-β (PKC-β [2]): some cross reactivity
Band Intensity (PKC-β [2]; 75 μg): 0.800
Inhibition (%) (PKC-β [2]; 75 μg): 31.0%
Relative Intensity (%) (PKC-β [2]; 75 μg): 69.0%
Band Intensity (PKC-β [2]; 300 μg): 0.403
Inhibition (%) (PKC-β [2]; 300 μg): 65.3%
Relative Intensity (%) (PKC-β [2]; 300 μg): 34.7%
effect on antibody binding to PKC-β (PKC-β [3]): some cross reactivity
Band Intensity (PKC-β [3]; 100 μg, PKC-β, IMR-32, Table 8): 0.0322
Inhibition (%) (PKC-β [3]; 100 μg, PKC-β, IMR-32, Table 8): 54.7%
Relative Intensity (%) (PKC-β [3]; 100 μg, PKC-β, IMR-32, Table 8): 45.3%
effect on antibody binding to PKC-ε (PKC-ε): some cross-reactivity with PKC-ε
Band Intensity (PKC-α [4]; 75 μg peptide): 0.917
Inhibition (%) (PKC-α [4]; 75 μg peptide): 56.1%
Relative Intensity (%) (PKC-α [4]; 75 μg peptide): 43.9%
Band Intensity (PKC-α [4]; 300 μg peptide): 0.192
Inhibition (%) (PKC-α [4]; 300 μg peptide): 90.9%
Relative Intensity (%) (PKC-α [4]; 300 μg peptide): 9.1%
effect on antibody binding to PKC-α (PKC-α [4]): mask the antigenic site of PKC-α
effect on antibody binding to PKC-α (PKC-α [5]): effectively interfered with PKC-α antibody binding to PKC-α
Band Intensity (PKC-α [5]; 100 μg, PKC-α, IMR-32, Table 7): 0.0103
Inhibition (%) (PKC-α [5]; 100 μg, PKC-α, IMR-32, Table 7): 99.9%
Relative Intensity (%) (PKC-α [5]; 100 μg, PKC-α, IMR-32, Table 7): 0.135%
